# Values of other authors, collected in patent publication US20130217743A1, “CANCER PREVENTION AND TREATMENT METHODS BASED ON DIETARY POLYAMINE CONTENT” (CANCER PREVENTION PHARMACEUTICALS, INC., priority 2010, published 2013).
# Tests used:
# [1] = test system: tumors harboring Ki-ras mutations; conditions: AOM-treated rats; reduced from 90%
# [2] = test system: tumor putrescine levels; conditions: rat-tumor model, DFMO infusion
# [3] = test system: COX
# [4] = test system: prostoglandin E2 (PGE2) levels in flat mucosa; conditions: 300 mg/day, one month
# [5] = for mean half-life: in vivo
# [6] = human, in vivo
smiles,measurement,setting,value
"NCCCC(N)(C(=O)O)C(F)F (racemic) [DFMO, 2-(difluoromethyl)-dl-ornithine]",number of tumors harboring Ki-ras mutations,[1],36%
same,decrease in tumor putrescine levels,[2],90%
CC1=C(CC(=O)O)c2cc(F)ccc2/C1=C\c1ccc(S(C)(=O)=O)cc1 [Sulindac sulfone],COX-inhibitory activity,[3],lacks COX-inhibitory activity
CC(C)Cc1ccc(C(C)C(=O)O)cc1 (centres unmarked) [ibuprofen],PGE2 levels in flat mucosa,[4],significant decrease
"CN1C(C(=O)Nc2ccccn2)=C(O)c2ccccc2S1(=O)=O [piroxicam, 4-hydroxy-2-methyl-N-2-pyridyl-2H-1,2-benzothiazine-3-carboxamide 1,1-dioxide]",number of tumors harboring Ki-ras mutations,[1],25%
CSc1ccc(/C=C2/C(C)=C(CC(=O)O)c3cc(F)ccc32)cc1 [sulfide metabolite],mean half-life,[5],16.4 h
"CC1=C(CC(=O)O)c2cc(F)ccc2/C1=C\c1ccc([S+](C)[O-])cc1 (centres unmarked) [sulindac, (Z)-5-fluoro-2-methyl-1-((4(methylsulfinyl)phenyl)methylene) 1H-indene-3-acetic acid]",drug absorbed,[5]; after oral administration,about 90%
same,time to peak plasma levels,[5]; fasting patients,about 2 hours
same,mean half-life,[5],7.8 h
same,"mild gastrointestinal effects, patients",[6],~20%
same,"skin rash and pruritus, patients",[6],5%
